According to patent publication US8551951B2, “Pharmaceutical preparations and methods for inhibiting tumors” (Aenorasis SA Pharmaceuticals and Medical Devices, priority 2000, dated 2013):

Key:
PC-3 cells [1] = assay: clonogenicity assay (colony formation); assay type: cell-based, human
Description: The synthetic decapeptide (SEQ ID NO: 3) has been shown herein to mimic the biological activity of native PSP94 (nPSP94) (SEQ ID NO: 1) and therefore its effect on the PC-3 cells was studied in clonogenicity assay (colony formation). Cells were seeded in Costar 96 well cell culture flat bottom plates in RPMI supplemented media containing 50 μg/ml of bovine serum albumin (BSA) and 0.1 μM FeSO4. Clonogenicity was evaluated for PC-3 cells grown in the presence of various concentration of the decapeptide after 9 days of culture (FIG. 4a). A parallel experiment was performed with various concentration of nPSP94 using the same experimental conditions (FIG. 4b). Other experiments evaluating clonogenicity was performed with the decapeptide (FIG. 5a) or nPSP94 (FIG. 5b) after 21 days of culture as well as after 10 days of culture (FIG. 6a: Decapeptide and FIG. 6b: nPSP94).

[2] = tested on: PC-3 human prostate tumor; assay: PC-3 human prostate tumor in nude mice, subcutaneous treatment for 14 days (Examples 10 and 11); assay type: in vivo, Nude mouse; details: 10 μg/kg body weight per day s.c.
Description: PC-3 human prostate tumor was obtained from ATCC (ATCC 1435). PC-3 cells were grown in RPMI media containing 10% (v/v) of fetal calf serum and were harvested in the logarithmic phase of growth by trypsinization. Cells were centrifuged at 1200 rotation per minute (rpm) and washed three timed with Hanks balanced salt solution (HBSS). Following washing, cells were counted and adjusted to a concentration of 1×10^7 cells/ml in HBSS. A 0.1 ml volume of tumor cell inoculum containing 1×10^6 cells was administered subcutaneously into the two opposite flank region of each Nude mouse (Nu/Nu, BALE/c background). Tumor growth was monitored for approximately 18 days. Once tumor growth has been established (volume of tumor reached a volume of 50 mm^3) treatment with rHuPSP94 (SEQ ID NO: 2) was initiated and was performed once a day for 14 days by the subcutaneous route. Based on the assigned treatment groups illustrated in table 4.
PC-3 human prostate tumor (ATCC 1435) obtained from ATCC was implanted bilaterally into nude mice and tumor growth was monitored for approximately 18 days. PC-3 cells were injected once subcutaneously into each flank of the mice. Once tumor growth has been established (i.e., volume of tumor reached 0.25 to 0.50 cm^3) the treatment with decapeptide (SEQ ID NO: 3), native PSP94 (SEQ ID NO: 1) and control scrambled polypeptide PB111 was initiated and was performed once a day for 14 days by the subcutaneous route based on the treatment groups (randomly assigned) illustrated in table 5.

PC-3 cells [3] = assay: Apoptosis assay by ELISA plus; assay type: cell-based, human; details: 22.5 μM to 90 μM, 72 hours
Description: The three polypeptides (SEQ ID NO: 4, SEQ ID NO: 5 and SEQ ID NO 6) and native PSP94 used here as a positive control were tested in ELISA plus assay to measure cell death through apoptosis. Briefly, the ELISA plus assay is a sandwich enzyme immunoassay able to measure mono- and oligonucleosomes present in the cytoplasmic fraction of cell lysate using two antibodies, one directed against DNA and the other directed against histones. The apoptotic cell death is characterized by activation of endogenous endonucleases (e.g., calcium- and magnesium-dependant), which cleave double-stranded DNA at the most accessible internucleosomal linker region, generating mono- and oligonucleosomes. The enrichment of mono- and oligonucleosomes in the cytoplasm of the apoptotic cells is due to the fact that DNA degradation occurs several hours before plasma membrane breakdown.
Four thousand cells were seeded in Costar 96 well cell culture flat bottom plates in RPMI supplemented media containing 50 μg/ml of bovine serum albumin (BSA) and 0.1 μM FeSO4. The PC-3 cells were treated with various concentrations (22.5 μM to 90 μM) of polypeptides for 72 hours. Apoptosis assay was done as per manufacturer's instructions using the ApopTag kit (Boeringher Mannheim).

PC-3 cells [4] = assay: DNA fragmentation assay (DNA ladder, apoptosis); assay type: cell-based, human; details: various concentrations, 72 hours
Description: Cell apoptosis result in DNA fragmentation can be evaluated by the presence of a DNA ladder visualized when DNA is run on a 1.2% agarose gel. DNA ladder assay (apoptosis assay) was performed following exposure of PC-3 to various concentrations of the polypeptides for 72 hours. The polypeptides that were used in this particular experiment are polypeptide 7-21 (SEQ ID NO: 4), polypeptide PCK3145 (SEQ ID NO: 5) and polypeptide 76-94 (SEQ ID NO: 6). […] This effect was especially evident following treatment with PCK3145 (SEQ ID NO: 5), which is illustrated by FIG. 7. Lane 1 of the gel illustrated in FIG. 7 represents a lambda HindIII digest standard.
Apoptosis of PC-3 cells, following a 72 hours exposure to PCK3145 at 500 μg/ml concentration, was evaluated in supplemented media by DNA fragmentation assay. Doxorubicin was used as a reference positive control. Untreated cells and PCK3145-treated cells were harvested and the DNA was isolated. Isolated DNA was run on a 1.2% agarose gel containing Ethidium Bromide (EtBr). […] Lane 1 of the gel illustrated in FIG. 25 represents the DNA marker (100 base pair DNA ladder). Lane 2 of the gel illustrated in FIG. 25 represents a control of untreated PC-3 cells.

[5] = tested on: human prostate cancer cells PC-3; assay: MTS assay, growth inhibitory effect on PC-3 cells; assay type: cell-based; details: 72 hours
Text: Cell proliferation was monitored on PC-3 cells using the MTS/PMS (phenazine methosulfate) kit (Promega), which primarily measures mitochondrial activity of live cells. The basic principle of this method involves the fact that the mitochondrial enzymes of the live cells metabolize the MTS/PMS dyes forming a brown colored precipitate which can be measured as optical density (OD) by absorption at 490 nm in a spectrophotometer. Therefore, the OD values are proportional to the number of living cells. In addition, monitoring of cell morphology was also performed. Cell morphology would be indicative of their health status. For example, viable cells would appear adherent and spread out whereas dead cells would be in suspension in the media and would appear granular and round.
PC-3 cells (ATCC, Lot AT06) used in these experiments were at a passage number lower or equal to 70 (n≧70). Cells were seeded in Costar 96 well cell culture flat bottom plates in RPMI supplemented media containing 50 μg/ml of bovine serum albumin (BSA) and 0.1 μM FeSO4. Peptide was diluted in the same media. Cells were continuously exposed to the polypeptides of the present invention for 72 hours without changing media. Native PSP94 or rHuPSP94 concentrated two fold were directly added to wells and diluted to 1× in order to minimize cell manipulation and avoid detachment.
Native PSP94, rHuPSP94, polypeptide 22-36 and PB111 polypeptide (scrambled polypeptide) were also included in this experiment as controls. Cell proliferation assay was performed on either PC-3 cells or normal fibroblasts (used here as control) using the MTS/PMS kit (Promega). Four thousand cells (FIGS. 9 and 10) or three thousand (FIG. 11) cells were seeded in Costar 96 well cell culture flat bottom plates in RPMI supplemented media containing 50 μg/ml of bovine serum albumin (BSA) and 0.1 μM FeSO4. In addition, monitoring of cell morphology was also performed.
This assay measures the mitochondrial activity of the live cells. The basic principle of this method involves the fact that the mitochondrial enzymes of the live cells metabolize the MTS/PMS dyes forming a brown colored precipitate which can be measured as optical density (OD) by absorption at 490 nm in a spectrophotometer. Therefore, the OD values are proportional to the number of living cells.
In addition, a visual observation of the cells was also done to check the cell morphology, which could also be indicative of cell growth. The following conditions for MTS assay were used: PC-3 (ATCC, Lot AT06), passage number n≧70, cell line adapted to grow in serum-free OPTI-MEM and in RPMI supplemented with BSA (50 μg/ml) and Ferrous Sulfate (0.1 μM), continuous exposure for up to 72 hours without changing media (i.e., adding PCK3145 at 2× concentration directly to wells and diluting it 1:2 to 1× to minimize cell manipulation and avoid detachment).

For “decapeptide: synthetic decapeptide as set forth in SEQ ID NO: 3, mimics the biological activity of native PSP94 (YTCSVSEPGI; decapeptide)”, the “decrease in colony number” value (PC-3 cells [1]; 1 μg/ml) was 40%, the “decrease in colony number” value (PC-3 cells [1]; 10 μg/ml) was “up to 60%” and the “tumor growth (tumor volume)” value [2] was “significant (p<0.05) tumor growth reduction”.
In the case of “polypeptide 76-94: PSP94 derived synthetic polypeptide from the carboxy terminus end, SEQ ID NO: 6 (IVVEKKDPKKTCSVSEWII; Polypeptide 76-94)”, the “apoptotic cell death effect” value (PC-3 cells [3]) is reported as “dose dependent increase in the apoptotic cell death effect”, the DNA laddering effect (PC-3 cells [4]) is reported as “induced a DNA laddering effect characteristic of apoptosis” and the “growth inhibition of PC-3 cells (FIG. 10)” value [5] is reported as “significant growth inhibition”.
